{"source": "patent US11072633B2", "about": "(priority 2016, dated 2021)", "key": {"[1]": {"tested_on": "M. tuberculosis CDC1551", "assay": "microbe, parasite or virus in culture", "assay_type": "cell-based", "settings": "for MIC: Mycobacterium tuberculosis, CDC1551"}, "[2]": {"tested_on": "M. tuberculosis", "assay": "Minimum Bactericidal Concentration (MBC)", "assay_type": "cell-based", "settings": "Mycobacterium tuberculosis"}, "[3]": {"tested_on": "Mtb", "assay": "Isoniazid MIC shift on Mtb MIC plates (broth microdilution MIC)", "assay_type": "cell-based, M. tuberculosis", "settings": "for MIC: Mycobacterium tuberculosis"}, "[4]": {"tested_on": "M. tuberculosis constitutively expressing the luxABCDE operon", "assay": "microbe, parasite or virus in culture", "assay_type": "cell-based"}, "[5]": {"tested_on": "M. tuberculosis CDC1551", "assay": "In vitro kill kinetics / time-kill (FIG. 2, FIG. 3)", "assay_type": "cell-based", "settings": "mono-treatment at 10-20 μM, 15 days; FIG. 2"}, "[6]": {"assay": "in vitro", "assay_type": "in vitro ADME", "settings": "human", "experimental": "(§1) Caco-2 cells were diluted to 6.86×10^6 cells/mL, dispensed into a 96-well HTS Transwell plate, and cultured for 14 to 18 days. 6-azasteroids at 5 μM was incubated at 37° C. for 2 hours with the Caco-2 cell monolayer in HBSS buffer (10 mM HEPES, pH 7.4) containing 5% BSA. Aliquots from donor sides (apical compartment for Ap→Bl flux, and basolateral compartment for Bl→Ap) and receiver sides (basolateral compartment for Ap→Bl flux, and apical compartment for Bl→Ap) were separated and extracted by acetonitrile or methanol containing appropriate internal standards (IS). The concentration of 6-azasteroid was determined by LC-MS/MS analysis.\n(§2) Elution rate: 0.65 mL/min.\n(§3) To predict absorption via oral administration, Caco-2 bidirectional permeability assay was performed (Table 8)."}, "[7]": {"tested_on": "Caco-2 cell line", "assay": "in vitro", "assay_type": "in vitro ADME", "experimental": "as §1, §2, §3"}, "[8]": {"target": "T1, hERG (Homo sapiens, UniProt Q12809)", "T1 construct": "expressed in transfected cells", "assay": "hERG assay (hERG currents in HEK 293 cells)", "assay_type": "cell-based", "settings": "hERG stably expressed HEK 293 cells", "experimental": "hERG stably expressed HEK 293 cells were seeded at 5×10^5 cells/per 6 cm cell culture dish and induced with doxycycline at 1 μg/mL for 48 hours. Compound at the final concentrations of 30, 10, 3.33, 1.11 and 0.37 μM was applied to the cells accumulatively, post-compound hERG currents were recorded, and IC50 was calculated. Dofetilide was used as a positive control.\nTo predict the potential cardiotoxic effects of 6-azastroids, human ether-a-go-go related gene (hERG) assay was applied to 100, 107 and 114 (Table 9). Cytotoxicity of 107 was also assessed (Table 10)."}, "[9]": {"tested_on": "luminescent strain of H37Rv in infected J774A.1 cells", "assay": "microbe, parasite or virus in culture", "assay_type": "cell-based, M. tuberculosis", "settings": "for IC50 / IC90: Mycobacterium tuberculosis, H37RV, J774.A1, single compound, 72 h treatment"}, "[10]": {"settings": "both, human, microsomes, 2 μM, pH 7.4"}, "[11]": {"settings": "10 mg/kg IP injection once per day, seven days per week, for 40 days"}, "[12]": {"assay": "in vitro", "settings": "both, human, microsomes, pH 7.4"}, "[13]": {"settings": "human liver microsomes, value by Frye (Frye, S. V. 2006); cited from earlier work"}, "[14]": {"assay": "Metabolic stability in human liver microsomes", "settings": "both, pH 7.4"}, "[15]": {"tested_on": "RIF-R2 (ATCC35838)", "assay": "microbe, parasite or virus in culture", "assay_type": "cell-based", "settings": "Mycobacterium tuberculosis, single drug"}, "[16]": {"tested_on": "M. tuberculosis constitutively expressing the luxABCDE operon", "settings": "isoniazid alone (Cho, S. H. et al. 2007), cited from earlier work"}, "[17]": {"settings": "TB drug alone, read-out: Aerobic MIC"}, "[18]": {"settings": "504 h, single compound, 2-log kill in 21 days, read-out: MBC"}}, "note": "Where two headings read alike, the source gives them in different places."}
{"molecule": "COc1nc2ccc(Br)cc2cc1[C@@H](c1ccccc1)[C@@](O)(CCN(C)C)c1cccc2ccccc12", "note": "[BDQ, bedaquiline, reference compound]", "values": [{"measurement": "MIC", "setting": "[1]; [17]", "value": 0.1, "unit": "µM"}, {"measurement": "MBC", "setting": "[2]; [18]", "value": 0.5, "unit": "µM"}]}
{"molecule": "O=[N+]([O-])c1cn2c(n1)OC[C@@H](OCc1ccc(OC(F)(F)F)cc1)C2", "note": "[Pa, pretomanid]", "values": [{"measurement": "MIC", "setting": "[1]; [17]", "value": 0.00625, "unit": "µM"}]}
{"molecule": "CC(C)(C)c1ccc(C(C)(C)C)c(NC(=O)[C@H]2CCC3C4CNC5=CC(=O)CC[C@]5(C)C4CC[C@@]32C)c1", "note": "(stereo partly drawn) [Compound 100]", "values": [{"measurement": "Isoniazid MIC shift", "setting": "[3]", "value": "+++ (>10-fold +++)"}, {"measurement": "Aerobic MIC of CLOF", "setting": "[1]; CLOF with 10 μM 6-azasteroid", "value": "NC^b"}, {"measurement": "MIC", "setting": "[1]; BDQ with 10 μM 6-azasteroid, read-out: Aerobic MIC of BDQ", "value": 0.01, "unit": "µM"}, {"measurement": "MIC", "setting": "[1]; Pa (pretomanid) with 10 μM 6-azasteroid, read-out: Aerobic MIC of Pa", "value": 0.0002, "unit": "µM"}, {"measurement": "MIC", "setting": "[4]; Mycobacterium tuberculosis, INH with 15 μM 6-azasteroid, read-out: LORA MIC of INH", "value": 0.75, "unit": "µM"}, {"measurement": "activity under low oxygen conditions", "setting": "[4]; in combination with isoniazid", "value": "active"}, {"measurement": "MBC", "setting": "[2]; INH with 12 μM 100, read-out: MBC of INH", "value": 0.6, "unit": "µM"}, {"measurement": "rapid killing with mono-treatment", "setting": "[5]", "value": "no rapid killing in 15 days"}, {"measurement": "Papp A→B at 2 h, 5 μM", "setting": "[6]; Caco-2, pH 7.4, Papp(A-B)", "value": 1.4, "unit": "×10⁻⁶ cm/s"}, {"measurement": "efflux ratio at 2 h, 5 μM", "setting": "[6]; Caco-2, pH 7.4, efflux ratio", "value": "~0.5"}, {"measurement": "substrate for P-gp transporter", "setting": "[7]; Caco-2", "value": "not a substrate for P-gp transporter"}, {"measurement": "intestinal absorption suggested by Papp(A-B)", "setting": "[7]; human, Caco-2, 5 μM, pH 7.4", "value": "over 50%"}, {"measurement": "IC50", "setting": "[8]", "value": 953, "unit": "nM"}, {"measurement": "improvement of the potency of INH", "setting": "[9]; 100 at 20 μM", "value": 10, "unit": "fold"}, {"measurement": "IC50", "setting": "[9]", "value": 3000, "unit": "nM"}, {"measurement": "IC90", "setting": "[9]", "value": "> 40000", "unit": "nM"}, {"measurement": "Remaining Percentage with NADPH, 0 min", "setting": "[10]; 0 h", "value": 100.00, "unit": "%"}, {"measurement": "Remaining Percentage with NADPH, 15 min", "setting": "[10]; 0.25 h", "value": 65.83, "unit": "%"}, {"measurement": "Remaining Percentage with NADPH, 30 min", "setting": "[10]; 0.5 h", "value": 55.21, "unit": "%"}, {"measurement": "Remaining Percentage with NADPH, 45 min", "setting": "[10]; 0.75 h", "value": 48.69, "unit": "%"}, {"measurement": "Remaining Percentage with NADPH, 60 min", "setting": "[10]; 1 h", "value": 37.91, "unit": "%"}, {"measurement": "toxicity", "setting": "[11]", "value": "no toxicity was observed"}, {"measurement": "CLint scaled at 2 μM", "setting": "[12]", "value": 37.5, "unit": "mL/min/kg"}, {"measurement": "microsomal CLint at 2 μM", "setting": "[12]", "value": 29.9, "unit": "µL/min/mg"}, {"measurement": "T1/2 previously reported", "setting": "[13]", "value": 164, "unit": "min"}, {"measurement": "half-life at 2 μM", "setting": "[14]", "value": 46.3, "unit": "min"}]}
{"molecule": "C[C@H]1COc2c(N3CCN(C)CC3)c(F)cc3c(=O)c(C(=O)O)cn1c23", "note": "[Levofloxacin]", "values": [{"measurement": "MIC", "setting": "[15]", "value": 2.4, "unit": "µM"}]}
{"molecule": "CC1C[C@@]2(C)C(=CC1=O)N(C)CC1C2CC[C@@]2(C)C1CC[C@@H]2C(=O)Nc1cc(C(C)(C)C)ccc1C(C)(C)C", "note": "(stereo partly drawn) [Compound 104]", "values": [{"measurement": "Isoniazid MIC shift", "setting": "[3]", "value": "++ (4-8-fold ++)"}]}
{"molecule": "CO[C@H]1/C=C/O[C@@]2(C)Oc3c(C)c(O)c4c(O)c(c(/C=N/N5CCN(C)CC5)c(O)c4c3C2=O)NC(=O)/C(C)=C\\C=C\\[C@H](C)[C@H](O)[C@@H](C)[C@@H](O)[C@@H](C)[C@H](OC(C)=O)[C@@H]1C", "note": "[Rifampicin]", "values": [{"measurement": "MIC", "setting": "[15]", "value": "> 50", "unit": "µM"}]}
{"molecule": "NNC(=O)c1ccncc1", "note": "[INH, isoniazid]", "values": [{"measurement": "MIC", "setting": "[3]; isoniazid without 6-azasteroid, read-out: MIC for isoniazid", "value": 0.4, "unit": "µM"}, {"measurement": "MIC", "setting": "[3]; read-out: MIC for isoniazid alone", "value": "0.2 to 0.4", "unit": "µM"}, {"measurement": "MIC", "setting": "[1]; [17]", "value": "0.2 to 0.4", "unit": "µM"}, {"measurement": "MBC", "setting": "[2]; [18]", "value": "> 230", "unit": "µM"}, {"measurement": "MIC", "setting": "[15]", "value": 0.6, "unit": "µM"}, {"measurement": "IC50", "setting": "[9]", "value": "~1500", "unit": "nM"}, {"measurement": "IC90", "setting": "[9]", "value": "> 6000", "unit": "nM"}, {"measurement": "LORA MIC", "setting": "[16]", "value": ">128", "unit": "µM"}, {"measurement": "LORA MIC", "setting": "[16]; listed as isoniazid", "value": "> 128", "unit": "µM"}]}
{"molecule": "CC(C)/N=c1\\cc2n(-c3ccc(Cl)cc3)c3ccccc3nc-2cc1Nc1ccc(Cl)cc1", "note": "[CLOF, clofazimine]", "values": [{"measurement": "MIC", "setting": "[1]; [17]", "value": 2, "unit": "µM"}]}
